Measured values as given in paper PMC11381544 (Nature Communications, 2024).

System: P3H1 within the PCP complex
Assay: 2-OG dependent oxygenase activity
Assay type: biochemical, human
Conditions: Succinate-Glo assay, Fig. 1g, Fig. 3f, Supplementary Fig. 1f

Substance | 2OG-Fe (II) oxygenase / P3H1 activity, in words | 2OG-Fe (II) oxygenase / P3H1 activity, in words (listed as PPIB^R95A) | 2OG-Fe (II) oxygenase / P3H1 activity, in words (listed as R95A)
cyclosporin A [CsA, reference compound] | hydroxylation enhancement was absent | – | –
peak HW: high molecular weight elution fractions corresponding to the PCP dual-ternary complex | slightly lower P3H1 activity | – | –
PCP ternary complex: low molecular weight elution fractions corresponding to the PCP ternary complex | inhibited upon depletion of ferrous ions | – | –
PCP-PPIBR95A: PCP complex with PPIB enzymatic mutation at the PI-site, R95A | – | elevated P3H1 activities | enhancing P3H1 activities
